Test results taken from US8012959B2, “Diaminopyrimidinecarboxamide derivative” (Astellas Pharma Inc., priority 2002, dated 2011).

Key:
[1] = tested on: T cells; test: Th2 differentiation (IL-4 production by differentiated mouse spleen T cells, ELISA); assay type: cell-based; details: inhibition of Th2 differentiation (IL-4 production, ELISA), C57BL/6 mouse spleen T cells
Protocol: Measurement of Th2 Differentiation
T cells were prepared by removing nylon wool (Wako Pure Chemical Industries)-adhering cells from C57BL/6 mouse (Charles River Japan) spleen cells. Using a 96 well plate to which an anti-CD3ε antibody (10 μg/ml) (Sederlane) had been immobilized in advance, T cells (2×10^5 cells/0.2 ml) were inoculated under stimulation with anti-CD28 antibody (1 μg/ml) (Pharmingen), IL-2 (10 ng/ml) (Peprotech) and IL-4 (10 ng/ml) (Peprotech). After 2 days of the culturing, total volume of the cell suspension was diluted to 2 ml with a medium containing IL-2 (10 ng/ml) and IL-4 (10 ng/ml). The differentiation was induced by further carrying out the culturing for 3 days. By counting the cell density, the cells after differentiation were adjusted to 1×10^6 cells/ml and inoculated into a 96 well plate immobilized with the anti-CD3 ε antibody, in order to induce IL-4 production. The supernatant after 24 hours of the stimulation was recovered, and the IL-4 production was determined by an ELISA method. The antibody used in the ELISA was purchased from Pharmingen. Also, an HRPO-labeled streptoavidin (Amersham Pharmacia) was used in the detection of biotinylated antibody, and a peroxidase color developing reagent (Sumitomo Bakelite) was used in the HRPO color development. In the case of the evaluation of compounds, compound dilutions were added to the wells before the addition of T cells, at the time of the dilution 2 days later, compounds equivalent to the initial concentration were added. Also, regarding the dilution of compounds, dilution was carried out using 10% FBS-containing RPMI 1640 such that the final concentration of DMSO in which each compound was dissolved became 0.1% or less. Inhibitory activity of each tested compound was evaluated in which the IL-4 production when DMSO was added instead of the compound was regarded as 100%, and the IL-4 production when anti-CD28 antibody and IL-4 were not added as 0%.

[2] = molecular target: T1, STAT 6 (Homo sapiens, UniProt P42226); test: STAT 6 tyrosine phosphorylation in IL-4-stimulated H292 cell (western blotting); assay type: cell-based; details: 1 μM compound, 10 ng/ml human IL-4, disappearance of the about 110 kDa band
T1 construct: host or cells: H292
T1 sequence (P42226 1-847): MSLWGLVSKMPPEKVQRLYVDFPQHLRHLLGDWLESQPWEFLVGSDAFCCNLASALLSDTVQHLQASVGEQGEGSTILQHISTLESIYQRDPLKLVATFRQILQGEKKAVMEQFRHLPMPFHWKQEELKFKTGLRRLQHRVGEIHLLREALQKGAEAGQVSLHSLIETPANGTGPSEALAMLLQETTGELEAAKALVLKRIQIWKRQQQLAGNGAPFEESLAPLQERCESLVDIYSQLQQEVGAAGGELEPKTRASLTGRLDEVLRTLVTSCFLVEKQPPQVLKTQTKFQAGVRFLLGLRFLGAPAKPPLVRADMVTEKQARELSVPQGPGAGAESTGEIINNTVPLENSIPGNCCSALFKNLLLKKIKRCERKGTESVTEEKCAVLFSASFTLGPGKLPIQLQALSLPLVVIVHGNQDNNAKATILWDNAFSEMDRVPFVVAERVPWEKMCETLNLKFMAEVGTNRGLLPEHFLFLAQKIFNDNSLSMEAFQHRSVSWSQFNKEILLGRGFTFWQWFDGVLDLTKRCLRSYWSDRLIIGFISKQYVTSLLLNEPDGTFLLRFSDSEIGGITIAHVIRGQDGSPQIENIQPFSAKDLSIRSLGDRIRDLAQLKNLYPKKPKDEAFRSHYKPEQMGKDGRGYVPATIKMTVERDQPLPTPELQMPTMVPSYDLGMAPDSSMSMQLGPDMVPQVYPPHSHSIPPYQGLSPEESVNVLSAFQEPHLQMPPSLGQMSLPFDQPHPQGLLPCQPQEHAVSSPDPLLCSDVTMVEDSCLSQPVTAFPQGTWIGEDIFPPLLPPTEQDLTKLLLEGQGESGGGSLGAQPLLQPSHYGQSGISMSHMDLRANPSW
Protocol: Measurement of STAT 6 Tyrosine Phosphorylation
The H292 cell (ATCC) (5×10^5 cells/0.5 ml) was inoculated into a 12 well plate (IWAKI) and cultured overnight, and then stimulation with 10 ng/ml of human IL-4 (Genzyme techne) was carried out. In the case of the evaluation of compounds, compound dilutions were added to the wells 20 minutes before the IL-4 stimulation. Also, regarding the dilution of compounds, dilution was carried out using 10% FBS-containing RPMI 1640 such that the final concentration of DMSO in which each compound was dissolved became 0.1% or less. This was washed three times with ice-cooled physiological phosphate buffer 20 minutes after the IL-4 stimulation. After the washing, 100 μl/well of a cell lysis solution (TNE buffer: 10 mM Tris-HCl pH 7.8, 1% NP-40, 0.15 M NaCl, 1 mM EDTA, 10 μg/ml aprotinin, 1 mM NaF and 1 mM Na3VO4) was added. The cell lysate was recovered, and 15 μl thereof was subjected to western blotting after SDS electrophoresis using an anti-tyrosine phosphorylated STAT 6 antibody (Cell Signaling). Whether or not the tyrosine phosphorylation band of about 110 kDa is disappeared, which is IL-4 stimulation-dependently detected, was judged. Also, uniform transference of the STAT 6 protein was confirmed using the same transfer membrane by western blotting which used an anti-STAT 6 antibody (SantaCruz).

Structure (SMILES): NC(=O)c1cnc(Nc2ccc(N3CCOCC3)cc2)nc1NCc1ccccc1 [Example 3, 4-benzylamino-2-{[4-(morpholin-4-yl)phenyl]amino}pyrimidine-5-carboxamide]
- Inh (%) [1]: 98%
- inhibition of STAT 6 tyrosine phosphorylation [2]: completely inhibited

Structure (SMILES): COc1ccccc1CNc1nc(Nc2ccc(N3CCOCC3)cc2)ncc1C(N)=O [Example 35]
- Inh (%) [1]: 94%
- inhibition of STAT 6 tyrosine phosphorylation [2]: completely inhibited

Structure (SMILES): Cc1cccc(Nc2nc(NCCc3ccc(O)c(Cl)c3)ncc2C(N)=O)c1 [Production Example 99]
- Inh (%) [1]: 85%
- inhibition of STAT 6 tyrosine phosphorylation [2]: completely inhibited
